Data on five molecules can be found in patent US20260258113A1, “BETA GLOBIN MIMETIC PEPTIDES AND THEIR USE” (THE UNITED STATES OF AMERICA, AS REPRESENTED BY THE …, priority 2022, published 2026).

Assay [1] deals with human omental arteries. Briefly: Isolated artery pressure myography: vasoconstriction to phenylephrine after alpha globin mimetic or control peptide, then L-NAME. Further details: key to Top (Mean) / Bottom (Mean): fitted inner diameter, % of baseline. As to conditions: for Bottom (Mean) / Top (Mean): four parameter logistic fit of inner diameter (percentage of baseline) vs phenylephrine; for effect on vasoconstriction response to PE: omental arteries incubated with peptide, 5 μmol/L; for maximal constriction to phenylephrine (4-PL minimum): pairs of omental arteries from five donors. The assay is classed as cell-based. How it is done:
To test this hypothesis, ex vivo pressure myography was performed on pairs of omental arteries obtained from each of five donors in response to escalating doses of the alpha adrenoreceptor agonist phenylephrine (responses fit with four parameter logistic regression best-fit values, FIGS. 6A-6B).
Isolated artery pressure myography: The pressure myography methodology utilized here for omental arteries is consistent with published protocols for assessing reactivity of mesenteric articles using a DMT pressure myograph (Shahid and Buys, JoVE J Vis Exp. 7.76:50328, 2013). Arteries […] in diameter were dissected from omental tissue on ice and transferred to the culture myograph wells (DMT-USA CM204); arterial inner diameter was measured by video microscope (DMT-USA) with digital calipers (MyoVIEW, DMT-USA).
All arteries used developed at least 20% myogenic tone after pressurization, consistent with standards for pressure myography (Shahid and Buys, JoVE J Vis Exp. 7.76:50328, 2013; Butcher et al., JoVE J Vis Exp. 28.62:3674, 2012; Jadeja et al., JoVE J Vis Exp. 6.101:e50997, 2015). Arteries were assessed for vasoconstriction response to the alpha-1-adrenoreceptor agonist phenylephrine (PE) [10^−9-10^−3] M (Sigma-Aldrich). Dose response to PE was then assessed after incubation with either the alpha globin mimetic peptide HbαX or a control peptide (5 μmol/L in KH buffer), and again following incubation with the NOS inhibitor No-Nitro-L-arginine methyl ester HCl (L-NAME, 10^−4 M)(Sigma-Aldrich).

Assay [2] has as its system isolated human omental arteries. Put plainly: Isolated artery pressure myography: vasoconstriction to phenylephrine after beta globin mimetic peptides. It counts as cell-based. To be noted: peptide 5 μmol/L for 45 minutes at 37° C., ex vivo. How it is done:
Collection of omental arteries: Human omental tissue was collected from patients during clinically indicated abdominal operations at the NIH Clinical Center. All patients provided informed consent for tissue procurement on IRB-approved protocol 13-C-0176 (NCT01915225). Tissue removed by the surgeon was immediately submerged in cold 4° C. Krebs-HEPES (KH) buffer (pH 7.4) and kept on ice during dissection and artery isolation. Small arteries were dissected away from the tissue in cold Krebs-HEPES (KH) buffer (Boston BioProducts).
Identification of beta globin mimetic peptides: Tetrameric hemoglobin was docked with dimer eNOS oxygenase domain using molecular docking algorithms (HADDOCK2). […]
Isolated artery pressure myography: The pressure myography methodology utilized here for omental arteries is consistent with published protocols for assessing reactivity of mesenteric articles using a DMT pressure myograph. […] Digital video calipers were used to measure in the inner diameter of cannulated arteries (MyoVIEW, DMT-USA) at two positions, and the average of both measurements was recorded.
All arteries developed at least 20% myogenic tone after pressurization, consistent with standards for pressure myography. Arteries were assessed for vasoconstriction response to the alpha-1-adrenoreceptor agonist phenylephrine (PE, Sigma-Aldrich) at successively higher doses ranging from 10^−9 to 10^−3 molar. […]

Assay [3] deals with canine resistance arteries. Briefly: Pressure myography of canine arteries: phenylephrine dose escalation after Hbb-1. The assay is classed as cell-based. The method, then: For these studies, omental tissue was removed from a canine laboratory animals soon after euthanasia. Mesenteric arteries 100-300 um in diameter were dissected out of the tissue and cannulated on glass pipettes. The arteries were incubated in a physiologic buffer solution (Krebs-Henseleit) at 37 degrees Celsius and pressured to 60 mm Hg. To assess vasoreactivity, escalating doses of phenylephrine were added to the incubation bath and artery diameter was measured using video microscopy with edge detection and digital calipers. The artery was incubated with 5 uM Hbb-1 peptide (including the tat cell permeability sequence) for 45 minutes. A second phenylephrine dose escalation was applied, and vasoconstriction was measured. The entire experiment was repeated with a second animal donor. In FIG. 20, artery diameter is presented as a percentage of baseline resting diameter at 60 mm Hg of pressure. The means and standard error of the mean were plotted for each condition and phenylephrine dose.

For assay [4], the target named is T1, association of alpha globin with eNOS (Mus musculus, UniProt P70313).
T1 construct: host or cells: mice (in vivo), endogenous proteins of resistance arteries
T1 sequence (P70313 2-1202 limits assumed): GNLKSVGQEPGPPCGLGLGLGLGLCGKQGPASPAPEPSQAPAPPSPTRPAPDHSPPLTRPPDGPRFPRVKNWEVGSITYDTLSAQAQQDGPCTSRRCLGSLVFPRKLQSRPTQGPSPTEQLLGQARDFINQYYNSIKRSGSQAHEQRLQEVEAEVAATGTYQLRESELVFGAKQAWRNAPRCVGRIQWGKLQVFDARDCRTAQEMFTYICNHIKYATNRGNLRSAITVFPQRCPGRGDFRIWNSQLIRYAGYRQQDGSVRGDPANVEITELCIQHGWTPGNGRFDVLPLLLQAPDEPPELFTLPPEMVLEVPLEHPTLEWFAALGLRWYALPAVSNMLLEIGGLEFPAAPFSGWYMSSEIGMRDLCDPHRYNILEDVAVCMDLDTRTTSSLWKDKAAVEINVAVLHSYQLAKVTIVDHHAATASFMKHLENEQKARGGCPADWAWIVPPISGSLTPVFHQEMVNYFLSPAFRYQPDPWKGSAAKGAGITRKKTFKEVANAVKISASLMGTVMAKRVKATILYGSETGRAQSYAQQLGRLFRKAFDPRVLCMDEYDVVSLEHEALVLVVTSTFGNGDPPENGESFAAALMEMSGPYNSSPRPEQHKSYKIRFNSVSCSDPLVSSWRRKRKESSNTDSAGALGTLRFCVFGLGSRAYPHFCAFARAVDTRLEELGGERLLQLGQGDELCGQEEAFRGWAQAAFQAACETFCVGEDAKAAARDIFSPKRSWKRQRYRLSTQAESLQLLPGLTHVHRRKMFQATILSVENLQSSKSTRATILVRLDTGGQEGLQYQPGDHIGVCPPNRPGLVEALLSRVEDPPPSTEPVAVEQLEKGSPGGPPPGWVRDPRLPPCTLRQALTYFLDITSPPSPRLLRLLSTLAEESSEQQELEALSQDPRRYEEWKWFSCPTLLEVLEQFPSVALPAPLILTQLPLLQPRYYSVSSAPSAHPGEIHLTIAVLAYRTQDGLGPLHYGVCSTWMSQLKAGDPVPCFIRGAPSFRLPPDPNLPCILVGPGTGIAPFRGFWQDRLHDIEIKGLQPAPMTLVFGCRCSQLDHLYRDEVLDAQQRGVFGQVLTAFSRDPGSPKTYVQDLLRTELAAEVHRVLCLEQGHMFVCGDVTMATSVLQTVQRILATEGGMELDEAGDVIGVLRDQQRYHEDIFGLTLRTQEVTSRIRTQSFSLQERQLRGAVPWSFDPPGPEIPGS
To be noted: mice; cited from earlier work.

[5] abbreviates: n = 5 human donors, peptide 5 μmol/L, L-NAME 10^-4 M.
The mark [6] stands for this setting: four parameter logistic fit, n = 5 human donors, peptide 5 μmol/L, L-NAME 10^-4 M.
Setting [7] is: log of phenylephrine concentration, four parameter logistic fit, n = 5 human donors, peptide 5 μmol/L, L-NAME 10^-4 M.

pIC50: −log10 of the molar value. Where “and” joins values, the source holds several entries; their conditions need not be identical. Equal values may be shown once. Entries after “also recorded” stand apart in the source; their conditions may differ.

By pIC50 is commonly meant the negative decadic logarithm of the IC50, by convention in mol/L.

For the molecule YGRKKRRQRRRFPYFSTKLTT [control peptide], in assay [1] (setting [5]), the “Bottom (Mean)” value was 45.78 and the “Top (Mean)” value is 100.40. Moreover, in assay [1] (setting [6]), the “HillSlope (Mean)” value is listed as −0.623. Besides, in assay [1] (setting [7]), the “LogIC50 (Mean)” value was −6.020. The “effect on vasoconstriction response to PE” value in assay [1] was “no significant difference”. Further, in assay [1] (peptide 5 μmol/L), the “maximal constriction to phenylephrine (4-PL minimum)” value (“maximal constriction” for short) is 39.1±3.2 % of baseline diameter.
Turning to TPEEKSAVTALWGK [Hbb-1], the entries for the “effect on human arterial vasoconstriction responses to phenylephrine” value in assay [2] and in assay [2] (listed as Hbb-Peptide-1) were “can inhibit vasoconstriction” and “potent vasodilatory effects”, respectively. Moreover, the “increase of phenylephrine dose needed to achieve the same degree of vasoconstriction” value in assay [3] (5 uM Hbb-1 peptide (including tat sequence) for 45 minutes, two animal donors) is recorded as “approximately 100 times”. Besides, the “effect on phenylephrine-induced vasoconstriction in canine arteries” value in assay [3] (5 uM Hbb-1 peptide for 45 minutes) was “can inhibit vasoconstriction; also recorded: shifted the vasoconstrictive response to phenylephrine to the right; also recorded: inhibits phenylephrine-induced vasoconstriction”.
In the case of YGRKKRRQRRRLSFPTTKTYF [HbαX], in assay [1] (setting [5]), the “Bottom (Mean)” value is 64.59 and the “Top (Mean)” value worked out at 99.93. For the same molecule, the “HillSlope (Mean)” value in assay [1] (setting [6]) is listed as −0.549. Besides, the “disruption of NO-scavenging in human vessels” value in assay [1] (human vessels) is “potent disruptor of NO-scavenging”. In addition, the “LogIC50 (Mean)” value in assay [1] (setting [7]) is listed as −5.575. Also, the “effect on vasoconstriction response to PE” value in assay [1] (listed as alpha globin mimetic peptide) is listed as “significantly inhibited the vasoconstriction response to PE; also recorded: diminished this constriction”. For the same molecule, the “maximal constriction” value in assay [1] (peptide 5 μmol/L) is 64.6±1.6 % of baseline diameter. Also, in assay [4], the alpha-1-adrenergic vasoconstriction result is recorded as “reduced alpha-1-adrenergic vasoconstriction”, the angiotensin-2 induced hypertension entry is recorded as “protection against angiotensin- 2 induced hypertension”, the “association of alpha globin with eNOS in vivo” value was “disrupt the association of alpha globin with eNOS” and the “mean arterial blood pressure” value is “lower mean arterial blood pressure”.
As to `COC(=O)[C@@H](N)CCCN=C(N)N[N+](=O)[O-].Cl` [L-NAME, No-Nitro-L-arginine methyl ester HCl], the “effect of L-NAME on vasoconstriction to PE” value in assay [1] (control peptide-treated arteries) is given as “no effect”; in assay [1] (mimetic peptide-treated arteries) it was “vasoconstriction was restored”. In addition, the “phenylephrine-induced vasoconstriction after incubation with L-NAME” value in assay [1] (mimetic peptide-treated arteries, L-NAME 10^-4 M) is reported as 41.9±2.0 % of baseline.
`CNC[C@H](O)c1cccc(O)c1` [Phenylephrine (PE), phenylephrine]: the pIC50 in assay [1] (Homo sapiens, log of phenylephrine concentration, four parameter logistic fit, n = 5 human donors, peptide 5 μmol/L, L-NAME 10^-4 M) was 6.00. Also, in assay [1] (setting [5]), the “Bottom (Mean)” value is 46.11 and 39.08; the “Top (Mean)” value was 100.30 and 100.12. In addition, in assay [1] (setting [7]), the “LogIC50 (Mean)” value is listed as −5.891. In addition, the “maximal constriction” value in assay [1] (peptide 5 μmol/L) is 39.1±3.2 % of baseline diameter and 46.1±5.5 % of baseline diameter.
